Data from the NIST ThermoML archive (doi:10.1021/je400835u).

Test: xn = mol fraction of the nth substance listed
Details: 100 kPa, Liquid; for viscosity: Falling or rolling sphere viscometry; for mass density: Vibrating tube method

CCCCC1CCCCC1 [butylcyclohexane] + CCCCCCC
Details	mass density, 293.15 K [kg/m3]	mass density, 298.15 K [kg/m3]	mass density, 303.15 K [kg/m3]	mass density, 308.15 K [kg/m3]	mass density, 313.15 K [kg/m3]	viscosity, 293.15 K [mPa·s]	viscosity, 298.15 K [mPa·s]	viscosity, 303.15 K [mPa·s]	viscosity, 308.15 K [mPa·s]	viscosity, 313.15 K [mPa·s]
x1 = 0.0499	691.14	686.96	682.7	678.43	674.27	0.445	0.422	0.404	0.38	0.365
x1 = 0.0991	698.01	693.86	689.65	685.41	681.26	0.477	0.453	0.432	0.408	0.39
x1 = 0.2001	711.59	707.49	703.36	699.21	695.08	0.537	0.51	0.485	0.463	0.44
x1 = 0.2995	724.33	720.29	716.21	712.12	708.05	0.597	0.564	0.533	0.508	0.484
x1 = 0.4006	736.73	732.74	728.7	724.68	720.66	0.665	0.623	0.59	0.56	0.531
x1 = 0.4984	748.17	744.24	740.26	736.29	732.29	0.741	0.694	0.652	0.617	0.584
x1 = 0.6015	759.68	755.81	751.86	747.93	744	0.832	0.776	0.727	0.685	0.646
x1 = 0.6993	770.09	766.25	762.36	758.5	754.58	0.929	0.865	0.808	0.758	0.713
x1 = 0.7999	780.33	776.52	772.68	768.84	764.98	1.042	0.966	0.9	0.842	0.789
x1 = 0.8999	790.07	786.3	782.5	778.7	774.89	1.172	1.083	1.005	0.936	0.875
x1 = 0.9501	794.82	791.06	787.29	783.51	779.72	1.242	1.146	1.059	0.988	0.922
x1 = 1	799.44	795.7	791.95	788.19	784.41	1.296	1.196	1.107	1.027	0.958

CCCCC1CCCCC1 [butylcyclohexane] + CCCCCCCC
Details	mass density, 293.15 K [kg/m3]	mass density, 298.15 K [kg/m3]	mass density, 303.15 K [kg/m3]	mass density, 308.15 K [kg/m3]	mass density, 313.15 K [kg/m3]	viscosity, 293.15 K [mPa·s]	viscosity, 298.15 K [mPa·s]	viscosity, 303.15 K [mPa·s]	viscosity, 308.15 K [mPa·s]	viscosity, 313.15 K [mPa·s]
x1 = 0.0495	708.15	704.15	700.12	696.06	691.99	0.569	0.547	0.515	0.49	0.464
x1 = 0.1008	713.59	709.59	705.57	701.55	697.5	0.596	0.573	0.54	0.512	0.486
x1 = 0.198	723.69	719.73	715.74	711.75	707.72	0.647	0.619	0.582	0.552	0.524
x1 = 0.3011	734.16	730.24	726.28	722.33	718.33	0.707	0.671	0.63	0.592	0.565
x1 = 0.4008	744.07	740.18	736.26	732.33	728.38	0.771	0.726	0.68	0.638	0.606
x1 = 0.4982	753.55	749.7	745.81	741.91	737.98	0.839	0.784	0.735	0.687	0.652
x1 = 0.5985	763.12	759.29	755.43	751.56	747.67	0.918	0.854	0.799	0.747	0.705
x1 = 0.6997	772.58	768.77	764.94	761.1	757.24	1.004	0.931	0.87	0.814	0.765
x1 = 0.7997	781.72	777.93	774.13	770.31	766.48	1.097	1.014	0.945	0.886	0.83
x1 = 0.9001	790.72	786.95	783.18	779.39	775.59	1.2	1.108	1.029	0.962	0.898
x1 = 0.951	795.17	791.42	787.66	783.88	780.1	1.25	1.156	1.07	0.996	0.93
x1 = 1	799.44	795.7	791.95	788.19	784.41	1.296	1.196	1.107	1.027	0.958

CCCCC1CCCCC1 [butylcyclohexane] + CCCCCCCCC
Details	mass density, 293.15 K [kg/m3]	mass density, 298.15 K [kg/m3]	mass density, 303.15 K [kg/m3]	mass density, 308.15 K [kg/m3]	mass density, 313.15 K [kg/m3]	viscosity, 293.15 K [mPa·s]	viscosity, 298.15 K [mPa·s]	viscosity, 303.15 K [mPa·s]	viscosity, 308.15 K [mPa·s]	viscosity, 313.15 K [mPa·s]
x1 = 0.0496	721.95	718.07	714.19	710.29	706.36	0.745	0.698	0.659	0.621	0.588
x1 = 0.1008	726.12	722.26	718.38	714.48	710.57	0.764	0.718	0.677	0.638	0.603
x1 = 0.2011	734.29	730.45	726.59	722.71	718.81	0.807	0.754	0.712	0.668	0.63
x1 = 0.3005	742.39	738.56	734.71	730.85	726.97	0.852	0.794	0.745	0.698	0.659
x1 = 0.3997	750.46	746.65	742.81	738.96	735.1	0.901	0.836	0.783	0.733	0.692
x1 = 0.4999	758.62	754.82	751	747.17	743.32	0.956	0.885	0.827	0.774	0.729
x1 = 0.5987	766.67	762.89	759.08	755.26	751.43	1.015	0.94	0.876	0.82	0.77
x1 = 0.7011	775.04	771.26	767.46	763.66	759.85	1.081	1.002	0.934	0.873	0.817
x1 = 0.8001	783.13	779.35	775.57	771.78	767.98	1.152	1.068	0.996	0.927	0.866
x1 = 0.8996	791.25	787.5	783.73	779.96	776.17	1.223	1.135	1.052	0.98	0.915
x1 = 0.9504	795.39	791.64	787.88	784.11	780.33	1.262	1.166	1.08	1.005	0.938
x1 = 1	799.44	795.7	791.95	788.19	784.41	1.296	1.196	1.107	1.027	0.958
